These results are taken from ChEMBL document CHEMBL1201862, “PubChem BioAssay data set” (2004).

For assay [1], the target named is T1, Corticotropin-releasing factor receptor 2/Corticotropin-releasing factor-binding protein (Homo sapiens, UniProt P24387+Q13324).
T1 sequence (Q13324 whole entry): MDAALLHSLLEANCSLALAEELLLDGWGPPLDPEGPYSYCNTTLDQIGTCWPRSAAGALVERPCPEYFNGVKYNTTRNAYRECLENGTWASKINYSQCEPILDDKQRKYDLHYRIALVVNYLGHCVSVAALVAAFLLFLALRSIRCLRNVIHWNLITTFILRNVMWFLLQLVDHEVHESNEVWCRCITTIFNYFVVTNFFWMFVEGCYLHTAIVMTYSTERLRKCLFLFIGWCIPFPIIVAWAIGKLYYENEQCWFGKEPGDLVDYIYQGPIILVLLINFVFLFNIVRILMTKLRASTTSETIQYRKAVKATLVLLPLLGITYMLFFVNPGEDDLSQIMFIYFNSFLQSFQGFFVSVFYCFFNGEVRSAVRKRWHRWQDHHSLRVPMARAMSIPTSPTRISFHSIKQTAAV
T1 sequence (P24387 whole entry): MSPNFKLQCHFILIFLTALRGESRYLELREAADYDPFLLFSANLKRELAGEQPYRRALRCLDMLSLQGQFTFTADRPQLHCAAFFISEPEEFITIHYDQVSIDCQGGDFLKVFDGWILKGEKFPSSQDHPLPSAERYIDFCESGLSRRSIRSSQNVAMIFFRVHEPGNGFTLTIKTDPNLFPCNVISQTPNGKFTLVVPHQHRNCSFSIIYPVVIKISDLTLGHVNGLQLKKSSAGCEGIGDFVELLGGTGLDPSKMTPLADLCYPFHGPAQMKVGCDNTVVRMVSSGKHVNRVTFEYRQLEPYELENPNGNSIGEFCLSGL
As to the kind of experiment: Dose Response confirmation of uHTS hits for small molecule antagonists of the CRF-binding protein and CRF-R2 receptor complex. Type of assay: functional. Conditions: read-out: IC50_Mean.

For assay [2], the target named is T1, Corticotropin-releasing factor receptor 2/Corticotropin-releasing factor-binding protein. As to the kind of experiment: activators of CRF receptor 2 with binding protein – uHTS hits, confirmation (AID 602473). The class given is functional. To be noted: read-out: EC50_Mean.
Assay [3] addresses Cytochrome P450 3A4 (Homo sapiens, UniProt P08684).
Assay [4] deals with T2, Cytochrome P450 1A2 (Homo sapiens, UniProt P05177).
T2 sequence (P05177 whole entry): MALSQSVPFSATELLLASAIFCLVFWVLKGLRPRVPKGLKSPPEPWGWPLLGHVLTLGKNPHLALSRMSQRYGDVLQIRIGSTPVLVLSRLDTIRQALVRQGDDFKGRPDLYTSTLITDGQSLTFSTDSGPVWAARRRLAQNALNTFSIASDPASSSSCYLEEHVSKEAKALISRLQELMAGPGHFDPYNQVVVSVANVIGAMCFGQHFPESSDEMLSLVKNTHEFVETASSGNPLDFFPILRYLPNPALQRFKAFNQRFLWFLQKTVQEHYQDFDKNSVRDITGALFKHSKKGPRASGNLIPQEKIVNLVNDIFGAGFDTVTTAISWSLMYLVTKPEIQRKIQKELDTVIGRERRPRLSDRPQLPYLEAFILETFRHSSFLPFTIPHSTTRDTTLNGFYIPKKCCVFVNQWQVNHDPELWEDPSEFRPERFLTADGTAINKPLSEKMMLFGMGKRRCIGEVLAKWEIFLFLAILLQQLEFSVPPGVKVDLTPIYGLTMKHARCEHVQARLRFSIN

The nature of assay [5]: luciferase reporter signal suppression in cells – H4 neuroglioma cells, luminescence, dose response (AID 1990). Type of assay: functional, cell-based.
A short description of assay [6]: Luminescence Cell-Based Dose Response HTS to Identify Inhibitors of 5'UTR Stem-Loop Driven Prion Protein mRNA Translation in H4 Neuroglioblastoma Cells. [Related pubchem assays: 1827 (Project Summary), 1813 (Primary HTS)]. The class given is functional.
Assay [7] is described as follows: alpha-synuclein stem-loop luciferase translation blockers – H4 neuroglioma cells, luminescence, confirmation (AID 1988). The class given is functional, cell-based.
Assay [8] has as its target Cytochrome P450 2C19 (Homo sapiens, UniProt P33261). As to the kind of experiment: Cytochrome panel assay with activity outcomes. Panel member name: p450-cyp2c19 Compounds with AC50 equal or less than 10 uM are considered active. The class given is functional. To be noted: read-out: AC50.
Assay [9] deals with Cytochrome P450 2C9 (Homo sapiens, UniProt P11712).
Assay [10] in a line: Luminescence Cell-Based Dose Response HTS to Identify Activators of Luciferase Translation or Activity in H4 […] Cells. [Related pubchem assays: 1829 (Project Summary), 1814 (Primary HTS)]. The class given is functional.
Assay [11] has as its system H4. Kind of assay: Luminescence Cell-Based Dose Response HTS to Identify Activators of 5'UTR Stem-Loop Driven Prion Protein mRNA Translation in H4 Neuroglioblastoma Cells. [Related pubchem assays: 1829 (Project Summary), 1814 (Primary HTS)]. The class given is functional. To be noted: Homo sapiens.
The subject of assay [12] is Streptococcus sp. 'group A'. As to the kind of experiment: Streptococcus pyogenes SK(-)GAS viability under kanamycin – luminescence, BacTiterGlo, confirmation, counter-screen for streptokinase expression inhibitor project, dose response (AID 1900). The class given is functional, organism-based. (A counterscreen serves to expose hits that act by an unwanted route or on another target.)

For assay [13], the target named is T3, Streptokinase A (Streptococcus pyogenes serotype M1, UniProt P10520).
T3 sequence (P10520 whole entry): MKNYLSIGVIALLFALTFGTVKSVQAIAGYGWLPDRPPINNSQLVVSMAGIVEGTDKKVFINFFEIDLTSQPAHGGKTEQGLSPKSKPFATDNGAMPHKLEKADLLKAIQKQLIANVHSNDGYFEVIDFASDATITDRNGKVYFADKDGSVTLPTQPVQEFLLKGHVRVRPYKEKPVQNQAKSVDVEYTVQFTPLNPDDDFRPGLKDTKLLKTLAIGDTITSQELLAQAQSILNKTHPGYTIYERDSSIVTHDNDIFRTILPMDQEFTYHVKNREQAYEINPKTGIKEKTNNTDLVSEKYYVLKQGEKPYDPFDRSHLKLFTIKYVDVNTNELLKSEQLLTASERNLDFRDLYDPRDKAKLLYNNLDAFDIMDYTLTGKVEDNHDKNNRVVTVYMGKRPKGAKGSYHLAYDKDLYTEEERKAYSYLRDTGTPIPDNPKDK
Kind of assay: viability-normalized secreted streptokinase activity reduction – plasminogen activation absorbance, OD405, dose response (AID 1914).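 Also: secreted streptokinase activity via plasminogen activation per viability signal from cell pellet.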 Type of assay: functional, Streptococcus pyogenes M1 GAS.

Assay [14] relates to Streptococcus. Kind of assay: GAS UMAA2166 growth inhibition – luminescence, BacTiterGlo, counter-screen for streptokinase expression inhibitor project, dose response (AID 1915).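 Also: potency for reduction of bacterial viability or growth.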 The class given is functional, organism-based.

The source made the active and inactive calls. Some results are limits rather than exact numbers.

Cytochrome P450 3A4, sequence (P08684 whole entry): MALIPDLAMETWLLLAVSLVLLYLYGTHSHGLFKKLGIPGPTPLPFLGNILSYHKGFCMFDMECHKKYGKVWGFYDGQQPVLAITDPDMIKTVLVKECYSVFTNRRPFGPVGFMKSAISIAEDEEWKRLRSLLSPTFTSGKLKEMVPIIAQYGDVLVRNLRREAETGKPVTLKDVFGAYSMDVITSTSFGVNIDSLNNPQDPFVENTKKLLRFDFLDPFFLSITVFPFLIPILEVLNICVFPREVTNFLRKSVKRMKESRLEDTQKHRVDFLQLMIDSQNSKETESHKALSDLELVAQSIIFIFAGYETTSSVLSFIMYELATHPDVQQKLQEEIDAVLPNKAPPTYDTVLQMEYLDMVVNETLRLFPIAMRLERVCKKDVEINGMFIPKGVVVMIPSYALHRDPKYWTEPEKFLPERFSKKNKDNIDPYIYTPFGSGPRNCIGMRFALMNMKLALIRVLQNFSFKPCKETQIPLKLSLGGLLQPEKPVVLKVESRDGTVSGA
Cytochrome P450 2C9, sequence (P11712 whole entry): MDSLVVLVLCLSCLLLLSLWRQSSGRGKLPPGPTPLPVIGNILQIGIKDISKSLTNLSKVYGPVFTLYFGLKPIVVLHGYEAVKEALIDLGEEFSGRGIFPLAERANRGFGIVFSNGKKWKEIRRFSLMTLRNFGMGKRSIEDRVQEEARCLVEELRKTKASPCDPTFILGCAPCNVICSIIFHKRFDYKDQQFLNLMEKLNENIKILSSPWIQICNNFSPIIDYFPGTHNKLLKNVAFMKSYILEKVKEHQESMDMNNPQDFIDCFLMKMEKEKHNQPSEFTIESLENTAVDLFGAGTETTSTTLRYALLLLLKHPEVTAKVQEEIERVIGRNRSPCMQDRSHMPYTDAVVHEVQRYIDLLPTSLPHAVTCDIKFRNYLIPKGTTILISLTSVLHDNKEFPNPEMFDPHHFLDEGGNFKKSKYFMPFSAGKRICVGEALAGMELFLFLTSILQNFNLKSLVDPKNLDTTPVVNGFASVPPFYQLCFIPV
Cytochrome P450 2C19, sequence (P33261 whole entry): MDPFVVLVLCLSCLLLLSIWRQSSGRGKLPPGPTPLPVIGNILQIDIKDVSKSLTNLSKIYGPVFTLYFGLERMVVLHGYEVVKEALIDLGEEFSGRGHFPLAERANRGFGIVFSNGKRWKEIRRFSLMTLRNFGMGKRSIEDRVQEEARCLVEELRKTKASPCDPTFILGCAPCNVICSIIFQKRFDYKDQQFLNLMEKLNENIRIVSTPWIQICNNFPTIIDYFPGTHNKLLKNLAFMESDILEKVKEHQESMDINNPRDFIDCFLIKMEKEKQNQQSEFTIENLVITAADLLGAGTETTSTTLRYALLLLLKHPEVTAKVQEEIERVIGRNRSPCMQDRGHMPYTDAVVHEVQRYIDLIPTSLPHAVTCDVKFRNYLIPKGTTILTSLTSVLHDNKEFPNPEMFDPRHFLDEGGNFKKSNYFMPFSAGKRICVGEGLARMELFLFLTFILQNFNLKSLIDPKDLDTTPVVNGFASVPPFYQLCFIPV

On to `Cc1ccccc1CN(C)C(=O)COC(=O)c1ccc2[nH]c(C)c(C)c2c1`, for which the IC50 in assay [1] was > 47.1 µM (inactive). Moreover, the EC50 in assay [2] was > 53 µM (inactive). A word on the AC50: it is the concentration giving half of the maximal activity seen. Regarding `CS(=O)(=O)N1CCC[C@@]2(CCN(c3ccccn3)C2)C1`, the AC50 in [3] is 20 µM (inconclusive). For the compound `O=c1oc2c(Cl)cc(Cl)cc2cc1-c1nnc(Nc2ccccc2F)s1`, in assay [4], the AC50 is 15.8 µM (inconclusive). For the compound `Cc1ccc(C(=O)N2C(=O)C(c3ccccc3)Oc3ccccc32)cc1` (stereo not drawn), the EC50 in assay [5], in assay [6] and in [7] was > 120 µM (not active) in each case.

With `CCc1nc(N2CCC3(CC2)OCCO3)c2nnn(Cc3ccccc3Cl)c2n1`, in assay [3], the AC50 is 15.8 µM (inconclusive). As for `Nc1cc(O)nc(SCCSc2ccccc2F)n1`, the EC50 was < 0.1 µM (active) in assay [5], 22.3 µM (active) in [6] and 1.29 µM (active) in [7]. For the compound `NCc1ccccc1.O=C(O)NCc1ccccc1`, the AC50 in assay [8] was 2.51 µM (inconclusive); in [9], 3.98 µM (inconclusive). With `CCN1CCCC1CNC(=O)CSCc1nc(-c2ccccc2C)oc1C` (stereo not drawn), the concentration at half-maximal activity (AC50) in assay [8] is 28.2 µM (inconclusive); in [4], 39.8 µM (inconclusive). Consider `COc1ccc(-n2cnc3sc(-c4ccccc4)cc3c2=O)cc1`, for which the AC50 in [4] is 3.55 µM (inconclusive).

Take `S=C(Nc1ccccc1)N1CCCCC1`: the AC50 in assay [8] is 17.8 µM (inconclusive); in assay [4], 22.4 µM (inconclusive).

For `CNC(=O)CN(C1CCCCC1)S(=O)(=O)c1ccc(F)cc1`, the IC50 in [1] was > 47.1 µM (inactive). For the same compound, the EC50 in [2] is > 53 µM (inactive). For the compound `Cc1[nH]c2ccccc2c1SCCNC(=O)c1ccc(S(=O)(=O)N2CCCC2)cc1`, the IC50 in assay [1] is > 47.1 µM (inactive). Also, the EC50 in assay [2] was > 53 µM (inactive). For the compound `COCCCNc1nc(N)c([N+](=O)[O-])c(Nc2cc(OC)ccc2OC)n1`, the figures for the EC50 in assay [5], in assay [6] and in [7] were 17.4 µM (active), 13.5 µM (active) and 17.8 µM (active), respectively. Take `O=C(/C=C\Nc1ccc(S(=O)(=O)Nc2ncccn2)cc1)c1cccc2ccccc12`: the EC50 in assay [5] is 18.3 µM (active); in assay [6] it was > 120 µM (not active); in [7], > 120 µM (not active). On to `CCCCCC(=O)Nc1ccccc1N1CCOCC1`, for which the EC50 in [5], in assay [6] and in assay [7] was > 120 µM (not active) in each case. For `c1ccc(CSc2nnc3c4ccccc4c4ccccc4c3n2)cc1`, the AC50 in [3] is 3.98 µM (inconclusive). On the same count and under the same terms, for `CCN(CC)CCCCCCCCOC(=O)c1cc(OC)c(OC)c(OC)c1` the value was 10 µM (inconclusive).

Turning to `CCC1CC2CC(NC(C)=O)C1C2` (stereo not drawn), the AC50 in assay [8] is 20 µM (inconclusive); in assay [9] it was 7.08 µM (inconclusive). `CCOc1ccc(-n2c(N)c(C(=O)NCc3cccnc3)sc2=S)cc1`: the AC50 in assay [8] was 8.91 µM (inconclusive); in assay [9], 3.55 µM (inconclusive). As for `CCN(c1ccccc1)S(=O)(=O)c1ccc(NC(=S)NC(=O)c2cccs2)cc1`, the AC50 in assay [3] was 2.24 µM (inconclusive).

With `COCCn1c(=O)c(C)nc2cncnc21`, the AC50 was 39.8 µM (inconclusive) in assay [8], 15.8 µM (inconclusive) in assay [4] and 31.6 µM (inconclusive) in [9]. Take `O=C(Oc1ccccc1)N1CCC2(CCCN(c3cccc(-c4ccccc4)c3)C2)CC1`: the AC50 in [3] is 15.8 µM (inconclusive). For the compound `COc1ccccc1-n1c(=S)sc2c(=O)n(Cc3ccco3)c(SC)nc21`, the IC50 in assay [1] was > 47.1 µM (inactive). The EC50 in assay [2] was > 53 µM (inactive).

For `CCNc1ncc2nc(-c3ccc(F)cc3)c(=O)n(-c3ccccc3)c2n1`, the AC50 in [4] is 0.398 µM (inconclusive). On to `O=C(O)[C@H]1[C@H]2CN[C@H](C(=O)O)[C@H]21`, for which the AC50 in [8] and in [4] was 31.6 µM (inconclusive) each time.

Take `O=C(Nc1nnc(C2CC2)s1)C1Cc2ccccc2CN1S(=O)(=O)c1ccccc1F` (stereo not drawn): the figures for the EC50 in [10] and in [11] were 0.123 µM (active) and > 120 µM (not active), respectively. As for `CCOc1ccc2c(c1)s/c(=N/C(=O)C1CC1)n2C`, the EC50 in assay [10] was 0.508 µM (active); in [11] it was 63.4 µM (active). With `CCNc1nnc(-c2ccncc2)s1`, the AC50 is 15.8 µM (inconclusive) in [4] and 17.8 µM (inconclusive) in [9]. With `Cc1ccc2c(CC(=O)NCC(=O)Nc3c(C)cccc3C)coc2c1`, in assay [1], the IC50 is > 47.1 µM (inactive). In addition, the EC50 in assay [2] was > 53 µM (inactive).

Regarding `CCOC(=O)c1ccccc1NC1c2ccccc2C(=O)N1c1ccc(C)cn1` (stereo not drawn), the EC50 was 9.17 µM (active) in [10] and 18.5 µM (active) in assay [11]. On to `COc1ccccc1C(c1nnnn1C(C)(C)C)N1CCN(Cc2ccncc2)CC1` (stereo not drawn), for which the AC50 in assay [4] was 25.1 µM (inconclusive). Consider `O=[N+]([O-])c1ccc(Cl)cc1Sc1nc2ccccc2o1`, for which the EC50 in assay [5] was > 120 µM (not active); in [12] it was 2.25 µM (active); in assay [6] it was > 120 µM (not active); in [7] it was > 120 µM (not active); in assay [13] it was 6.18 µM (active); in [14] it was 7.26 µM (active). In the case of `N#CNC(=Nc1cccc(F)c1)SCc1ccccc1`, the IC50 in assay [1] was 14 µM (active). In addition, in assay [2], the EC50 was > 53 µM (inactive). As to `CCOC(=O)C1CCCN(S(=O)(=O)c2ccccc2)C1` (stereo not drawn), the IC50 in assay [1] is > 47.1 µM (inactive). For the same compound, the EC50 in assay [2] is > 53 µM (inactive). Take `COC(=O)c1cc(Br)c(=O)n(CCc2ccc(O)cc2)c1`: the AC50 in [4] is 10 µM (inconclusive).

`COc1cc(NC(=S)NCCC(c2ccccc2)c2ccccc2)c(OC)cc1Cl`: the IC50 in assay [1] was 4.69 µM (active). Also, the EC50 in assay [2] was > 53 µM (inactive).

Consider `CCOCCCN(CC(=O)NC1CCCC1)C(=O)C(=O)Nc1ccc2c(c1)OCCO2`, for which the IC50 in assay [1] was > 47.1 µM (inactive). The EC50 in assay [2] is > 53 µM (inactive).
